# Data from patent US20060189602A1, “Pyridazinone compounds” (Anadys Pharmaceuticals, Inc., priority 2004, published 2006).
# Target: HCV NS5B polymerase (Hepatitis C virus genotype 1b, UniProt P26663)
# Test: NS5B Polymerase Inhibition Assay
# Format: biochemical
# Settings: 50 nM enzyme, [α-33P]GTP, oligo (rG13)/poly rC, 75 min at 28° C.
# Method: NS5B Polymerase Inhibition Assay
# Compounds were tested for HCV polymerase inhibition. Assays were performed in a 96-well streptavidin-coated FlashPlate using 50 nM enzyme, 0.5 μCi of [α-^33P]GTP, 0.63 μM GTP, and 250 nM 5′biotinylated oligo (rG13)/poly rC in 20 mM Tris-HCl, pH 7.5, 5 mM MgCl2, 20 mM NaCl, 5 mM dithiothreitol, and 0.1 g/L BSA. The reaction was stopped by aspiration after 75 min at 28° C. and the plate was washed several times. After washing, incorporated radioactivity was counted using a Microbeta scintillation counter.
# Sequence of HCV NS5B polymerase (P26663 2420-3010): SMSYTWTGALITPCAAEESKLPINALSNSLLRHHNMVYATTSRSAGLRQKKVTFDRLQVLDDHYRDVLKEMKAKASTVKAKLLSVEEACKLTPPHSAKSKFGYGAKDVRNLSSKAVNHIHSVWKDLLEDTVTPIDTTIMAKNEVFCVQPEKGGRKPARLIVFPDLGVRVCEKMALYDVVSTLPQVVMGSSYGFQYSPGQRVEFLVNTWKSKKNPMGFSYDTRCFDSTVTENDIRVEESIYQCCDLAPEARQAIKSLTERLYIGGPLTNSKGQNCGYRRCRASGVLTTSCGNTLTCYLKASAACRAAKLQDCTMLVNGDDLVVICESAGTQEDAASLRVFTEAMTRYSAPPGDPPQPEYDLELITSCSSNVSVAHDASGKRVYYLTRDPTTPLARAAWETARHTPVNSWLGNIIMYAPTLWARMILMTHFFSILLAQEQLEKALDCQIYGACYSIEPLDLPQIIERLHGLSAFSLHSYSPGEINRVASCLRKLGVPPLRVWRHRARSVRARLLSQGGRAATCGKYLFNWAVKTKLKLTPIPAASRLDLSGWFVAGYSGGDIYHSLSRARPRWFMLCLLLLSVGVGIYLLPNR
row,IC50,Structure (SMILES)
1,< 10 µM,"CC(C)CCn1nc(-c2cccs2)c(O)c(C2=Nc3ccc(OCC(=O)N4CCC(N)C4)cc3S(=O)(=O)N2)c1=O (stereo not drawn) [Compound 21, 4-{7-[2-(3-Amino-pyrrolidin-1-yl)-2-oxo-ethoxy]-1,1-dioxo-1,2-di-hydro-1λ^6-benzo[1,2,4]thiadiazin-3-yl}-5-hydroxy-2-(3-methyl-butyl)-6-thiophen-2-yl-2H-pyridazin-3-one]"
2,10 to 50 µM,"COc1ccc2c(c1)S(=O)(=O)NC(c1c(O)c(C(C)C)nn(CCC(C)C)c1=O)=N2 [Compound 26, 5-Hydroxy-6-isopropyl-4-(7-methoxy-1,1-dioxo-1,2-dihydro-1λ^6-ben-zo[1,2,4]thiadiazin-3-yl)-2-(3-methyl-butyl)-2H-py-ridazin-3-one]"
3,10 to 50 µM,"CC(C)CCn1nc(C(C)C)c(O)c(C2=Nc3ccccc3S(=O)(=O)N2)c1=O [Compound 27, 4-(1,1-Dioxo-1,2-dihydro-1λ^6-benzo[1,2,4]thiadiazin-3-yl)-5-hy-droxy-6-isopropyl-2-(3-methyl-butyl)-2H-pyridazin-3-one]"
4,10 to 50 µM,"COc1ccc2c(c1)S(=O)(=O)NC(c1c(O)c(-c3cccn3C)nn(CCC(C)C)c1=O)=N2 [Compound 28, 5-Hydroxy-4-(7-methoxy-1,1-dioxo-1,2-dihydro-1λ^6-ben-zo[1,2,4]thiadiazin-3-yl)-2-(3-methyl-butyl)-6-(1-methyl-1H-pyr-rol-2-yl)-2H-pyridazin-3-one]"
5,10 to 50 µM,"CC(C)CCn1nc(C(C)C)c(O)c(C2=Nc3ccc(O)cc3S(=O)(=O)N2)c1=O [Compound 29, 5-Hydroxy-4-(7-hydroxy-1,1-dioxo-1,2-dihydro-1λ^6-ben-zo[1,2,4]thiadiazin-3-yl)-6-isopropyl-2-(3-methyl-butyl)-2H-py-ridazin-3-one]"
6,< 10 µM,"CC(C)CCn1nc(-c2cccs2)c(O)c(C2=Nc3ccncc3S(=O)(=O)N2)c1=O [Compound 30, 4-(1,1-Dioxo-1,2-dihydro-1λ^6-pyrido[4,3-e][1,2,4]thiadiazin-3-yl)-5-hy-droxy-2-(3-methyl-butyl)-6-thiophen-2-yl-2H-py-ridazin-3-one]"
7,< 10 µM,"COc1ccc2c(c1)S(=O)(=O)NC(c1c(O)c(-c3ccco3)nn(CCC(C)C)c1=O)=N2 [Compound 32, 6-Furan-2-yl-5-hydroxy-4-(7-methoxy-1,1-dioxo-1,2-dihydro-1λ^6-ben-zo[1,2,4]thiadiazin-3-yl)-2-(3-methyl-butyl)-2H-py-ridazin-3-one]"
8,< 10 µM,"CC(C)CCn1nc(C(C)C)c(O)c(C2=Nc3ccc(OCC(N)=O)cc3S(=O)(=O)N2)c1=O [Compound 33, 2-{3-[5-Hydroxy-6-isopropyl-2-(3-methyl-butyl)-3-oxo-2,3-di-hydro-pyridazin-4-yl]-1,1-dioxo-1,2-dihydro-1λ^6-ben-zo[1,2,4]thiadiazin-7-yloxy}-acetamide]"
9,< 10 µM,"CCCCn1nc(CCC(C)C)c(O)c(C2=Nc3ccc(OC)cc3S(=O)(=O)N2)c1=O [Compound 34, 2-Butyl-5-hydroxy-4-(7-methoxy-1,1-dioxo-1,2-dihydro-1λ^6-ben-zo[1,2,4]thiadiazin-3-yl)-6-(3-methyl-butyl)-2H-pyridazin-3-one]"
10,< 10 µM,"CCCCc1nn(CCC(C)C)c(=O)c(C2=Nc3ccc(OC)cc3S(=O)(=O)N2)c1O [Compound 35, 6-Butyl-5-hydroxy-4-(7-methoxy-1,1-dioxo-1,2-dihdyro-1λ^6-ben-zo[1,2,4]thiadiazin-3-yl)-2-(3-methyl-butyl)-2H-pyridazin-3-one]"
11,< 10 µM,"CCCCc1nn(CCC(C)C)c(=O)c(C2=Nc3ccc(O)cc3S(=O)(=O)N2)c1O [Compound 36, 6-Butyl-5-hydroxy-4-(7-hydroxy-1,1-dioxo-1,2-dihydro-1λ^6-ben-zo[1,2,4]thiadiazin-3-yl)-2-(3-methyl-butyl)-2H-pyridazin-3-one]"
12,< 10 µM,"CCCCn1nc(CCC(C)C)c(O)c(C2=Nc3ccc(O)cc3S(=O)(=O)N2)c1=O [Compound 38, 2-Butyl-5-hydroxy-4-(7-hydroxy-1,1-dioxo-1,2-dihydro-1λ^6-ben-zo[1,2,4]thiadiazin-3-yl)-6-(3-methyl-butyl)-2H-pyridazin-3-one]"
